This note sets out measurements from BindingDB's records for doi:10.1016/j.bmcl.2019.126678 (Vanderbilt University, 2019).

The structures appear in SMILES notation.

Sequence of Muscarinic acetylcholine receptor M4 (human) (P08173 whole entry, looked up): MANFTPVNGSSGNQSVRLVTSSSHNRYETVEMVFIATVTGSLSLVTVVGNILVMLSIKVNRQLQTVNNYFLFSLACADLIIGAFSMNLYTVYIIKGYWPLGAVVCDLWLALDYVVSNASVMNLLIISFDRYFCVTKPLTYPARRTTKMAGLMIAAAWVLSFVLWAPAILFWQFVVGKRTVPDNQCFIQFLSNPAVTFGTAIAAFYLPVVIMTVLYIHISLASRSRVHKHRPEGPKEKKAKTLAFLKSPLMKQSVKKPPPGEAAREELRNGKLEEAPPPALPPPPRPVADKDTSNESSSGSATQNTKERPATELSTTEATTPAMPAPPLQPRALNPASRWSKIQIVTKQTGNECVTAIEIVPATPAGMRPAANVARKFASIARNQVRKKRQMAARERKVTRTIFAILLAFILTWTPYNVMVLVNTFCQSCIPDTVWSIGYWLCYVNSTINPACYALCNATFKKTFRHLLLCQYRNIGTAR

The target of one assay is Muscarinic acetylcholine receptor M4 (rat). Briefly: Positive allosteric modulation of rat M4 receptor expressed in CHO cells co-expressing Gqi5 assessed as increase in acetylcholine-induced calcium mobilization incubated with EC20 ACh for 140 secs and subsequent EC80 Ach addition further incubated for 120 secs by Fluo-4-AM dye based fluorescence assay. On the technique in general: Calcium flux is commonly read through the fluorescence of an indicator in the cells.
Usually EC50 stands for the concentration giving half of the maximal effect. As for `Cc1nnc2ccc(C(=O)NC3CN(c4ncc(C#N)cc4Cl)C3)cc2c1C`, the EC50 was 138 nM.

With `Cc1nnc2ccc(C(=O)NC3CN(c4cc(Cl)ncc4Cl)C3)cc2c1C`, the half-maximal effective concentration (EC50) came to 230 nM.

Consider `Cc1nnc2ccc(C(=O)NC3CN(c4ncc(F)cc4Cl)C3)cc2c1C`, for which the EC50 amounted to 174 nM.

`COc1cc(N2CC(NC(=O)c3ccc4nnc(C)c(C)c4c3)C2)c(Cl)cn1`: the EC50 was found to be 356 nM.

Turning to `Cc1nnc2ccc(C(=O)NC3CN(c4ncc(Cl)cc4F)C3)cc2c1C`, the half-maximal effective concentration (EC50) was 82 nM.

The next assay concerns the target Muscarinic acetylcholine receptor M4 (human) (UniProt P08173). Briefly: Positive allosteric modulation of human M4 receptor expressed in CHO cells co-expressing Gqi5 assessed as increase in acetylcholine-induced calcium mobilization incubated with EC20 ACh for 140 secs and subsequent EC80 Ach addition further incubated for 120 secs by Fluo-4-AM dye based fluorescence assay.
Regarding `Cc1nnc2ccc(C(=O)NC3CN(c4ncc(C#N)cc4Cl)C3)cc2c1C`, the EC50 worked out at 304 nM.

For `Cc1nnc2ccc(C(=O)NC3CN(c4cc(Cl)ncc4Cl)C3)cc2c1C`, the EC50 came to 116 nM.

With `Cc1nnc2ccc(C(=O)NC3CN(c4ncc(F)cc4Cl)C3)cc2c1C`, the 50% effective concentration (EC50) was 464 nM.

Take `COc1cc(N2CC(NC(=O)c3ccc4nnc(C)c(C)c4c3)C2)c(Cl)cn1`: the EC50 is 373 nM.

As for `Cc1nnc2ccc(C(=O)NC3CN(c4ccc(Cl)cn4)C3)cc2c1C`, the concentration for a half-maximal effect (EC50) came to 1270 nM.

On to `Cc1nnc2ccc(C(=O)NC3CN(c4ncc(C5CC5)cc4Cl)C3)cc2c1C`, for which the EC50 amounted to 1390 nM.

With `Cc1nnc2ccc(C(=O)NC3CN(c4ncc(OC(C)C)cn4)C3)cc2c1C`, the half-maximal effective concentration (EC50) was found to be 3200 nM.

For `Cc1nnc2ccc(C(=O)NC3CN(c4ncccc4F)C3)cc2c1C`, the EC50 amounted to 1220 nM.

Consider `Cc1nnc2ccc(C(=O)NC3CN(c4ccc(C#N)cn4)C3)cc2c1C`, for which the EC50 was found to be 1030 nM.

Turning to `Cc1nnc2ccc(C(=O)NC3CN(c4ccc(OC(F)F)nc4)C3)cc2c1C`, the EC50 is 1460 nM.

For the molecule `Cc1nnc2ccc(C(=O)NC3CN(c4ccc(F)c(F)c4)C3)cc2c1C`, the EC50 was found to be 737 nM.

Take `Cc1nnc2ccc(C(=O)NC3CN(c4ncc(Cl)cc4F)C3)cc2c1C`: the concentration giving a half-maximal response (EC50) worked out at 648 nM.

Take `Cc1nnc2ccc(C(=O)NC3CN(c4cccc(C(F)(F)F)n4)C3)cc2c1C`: the concentration for a half-maximal effect (EC50) was 3360 nM.

For `Cc1nnc2ccc(C(=O)NC3CN(c4cccc(F)n4)C3)cc2c1C`, the EC50 was 668 nM.

Consider `Cc1nnc2ccc(C(=O)NC3CN(c4cccc(Cl)n4)C3)cc2c1C`, for which the EC50 was 1320 nM.

As for `Cc1nnc2ccc(C(=O)NC3CN(c4ncc(C(F)(F)F)cc4Cl)C3)cc2c1C`, the 50% effective concentration (EC50) amounted to 2630 nM.

For `Cc1nnc2ccc(C(=O)NC3CN(c4ncc(C(F)(F)F)cn4)C3)cc2c1C`, the concentration for a half-maximal effect (EC50) is more than 10000 nM.

`Cc1nnc2ccc(C(=O)NC3CN(c4cnc(C5CC5)cn4)C3)cc2c1C`: the EC50 turned out to be 2510 nM.

For the molecule `Cc1nnc2ccc(C(=O)NC3CN(c4ncccc4Cl)C3)cc2c1C`, the EC50 was 952 nM.
